Experiments:
blackgrass = test: Test B pre/postemergence blackgrass; format: in vivo, Alopecurus myosuroides
Procedure, shortened: (§1)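 Response is a visual 0-to-10 score relative to untreated plants, where 0 means no effect and 10 means complete control, taken twelve to sixteen days after application. Treatments went onto soil at planting and onto foliage of 1- to 4-leaf plants, using a surfactant-containing non-phytotoxic solvent.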

wild oat = test: Test B pre/postemergence wild oat; format: in vivo, Avena fatua
Procedure, shortened: as §1

corn = test: Test B pre/postemergence corn; format: in vivo, Zea mays
Procedure, shortened: as §1

velvetleaf = test: Test B pre/postemergence velvetleaf; format: in vivo, Abutilon theophrasti
Procedure, shortened: as §1

surinam grass = test: Test B pre/postemergence surinam grass; format: in vivo, Brachiaria decumbens
Procedure, shortened: as §1

wheat = test: Test B pre/postemergence wheat; format: in vivo, Triticum aestivum
Procedure, shortened: as §1

rape = test: Test B pre/postemergence rape; format: in vivo, Brassica napus
Procedure, shortened: as §1

purple nutsedge = test: Test B pre/postemergence purple nutsedge; format: in vivo, Cyperus rotundus; conditions: for Nutsedge plant response rating: Postemergence; for Plant response rating, Nutsedge: Preemergence
Procedure, shortened: as §1

crabgrass = test: Test B pre/postemergence crabgrass; format: in vivo, Digitaria sanguinalis
Procedure, shortened: as §1

morningglory = test: Test B pre/postemergence morningglory; format: in vivo, Ipomoea hederacea
Procedure, shortened: as §1

giant foxtail = test: Test B pre/postemergence giant foxtail; format: in vivo, Setaria faberii
Procedure, shortened: as §1

soybean = test: Test B pre/postemergence soybean; format: in vivo, Glycine max
Procedure, shortened: as §1

bedstraw = test: Test B pre/postemergence bedstraw; format: in vivo, Galium aparine
Procedure, shortened: as §1

cocklebur = test: Test B pre/postemergence cocklebur; format: in vivo, Xanthium strumarium
Procedure, shortened: as §1

pigweed = test: Test B pre/postemergence pigweed; format: in vivo, Amaranthus retroflexus
Procedure, shortened: as §1

[1] = Postemergence, Rate 62 g/ha, scale 0 to 10, 0 is no effect, 10 is complete control
[2] = Postemergence, Rate 250 g/ha, scale 0 to 10, 0 no effect, 10 complete control
[3] = Preemergence, Rate 62 g/ha, scale 0 to 10, 0 is no effect, 10 is complete control
[4] = Preemergence, Rate 125 g/ha, scale 0 to 10 (0 no effect, 10 complete control)
[5] = Preemergence, Rate 250 g/ha, scale of 0 to 10 where 0 is no effect and 10 is complete control
[6] = Preemergence, Rate 500 g/ha, scale 0 (no effect) to 10 (complete control)
[7] = Rate 125 g/ha, Postemergence, scale 0 to 10, 0 no effect, 10 complete control
[8] = Rate 500 g/ha, Postemergence, scale 0 to 10, 0 no effect, 10 complete control

In the case of `Cc1cccc(C)c1-n1c(=O)on(C(=O)N(c2ccc(Cl)cc2)C(C)C)c1=O` [Compound 47], the “Blackgrass plant response rating” value (blackgrass; [1]) was 0, the “Blackgrass plant response rating” value (blackgrass; [2]) was 0 and the “Plant response rating, Blackgrass” value (blackgrass; [3]) was 0. For the same compound, the “Plant response rating, Blackgrass” value (blackgrass; [4]) was 0, the “Plant response rating, Blackgrass” value (blackgrass; [5]) was 0 and the “Blackgrass plant response rating” value (blackgrass; [6]) was 0. The “Blackgrass plant response rating” value (blackgrass; [7]) was 0, the “Blackgrass plant response rating” value (blackgrass; [8]) was 0 and the “Wild oats plant response rating” value (wild oat; [1]) was 0. The “Wild oats plant response rating” value (wild oat; [2]) was 0, the “Plant response rating, Wild oats” value (wild oat; [4]) was 0 and the “Plant response rating, Wild oats” value (wild oat; [5]) was 0. For the same compound, the “Wild oats plant response rating” value (wild oat; [6]) was 0, the “Wild oats plant response rating” value (wild oat; [7]) was 0 and the “Wild oats plant response rating” value (wild oat; [8]) was 3. For the same compound, the “Corn plant response rating” value (corn; [1]) was 0, the “Corn plant response rating” value (corn; [2]) was 0 and the “Plant response rating, Corn” value (corn; [3]) was 0. For the same compound, the “Plant response rating, Corn” value (corn; [4]) was 0, the “Plant response rating, Corn” value (corn; [5]) was 0 and the “Corn plant response rating” value (corn; [6]) was 0. The “Corn plant response rating” value (corn; [7]) was 0, the “Corn plant response rating” value (corn; [8]) was 0 and the “Velvetleaf plant response rating” value (velvetleaf; [1]) was 0. For the same compound, the “Velvetleaf plant response rating” value (velvetleaf; [2]) was 0, the “Plant response rating, Velvetleaf” value (velvetleaf; [3]) was 0 and the “Plant response rating, Velvetleaf” value (velvetleaf; [4]) was 0. The “Plant response rating, Velvetleaf” value (velvetleaf; [5]) was 0, the “Velvetleaf plant response rating” value (velvetleaf; [6]) was 0 and the “Velvetleaf plant response rating” value (velvetleaf; [7]) was 0. For the same compound, the “Velvetleaf plant response rating” value (velvetleaf; [8]) was 0, the “B. signalgrass plant response rating” value (surinam grass; [1]) was 0 and the “B. signalgrass plant response rating” value (surinam grass; [2]) was 0. For the same compound, the “Plant response rating, B. signalgrass” value (surinam grass; [3]) was 0, the “Plant response rating, B. signalgrass” value (surinam grass; [4]) was 0 and the “Plant response rating, B. signalgrass” value (surinam grass; [5]) was 0. The “B. signalgrass plant response rating” value (surinam grass; [6]) was 0, the “B. signalgrass plant response rating” value (surinam grass; [7]) was 0 and the “B. signalgrass plant response rating” value (surinam grass; Rate 500 g/ha, Postemergence, scale of 0 to 10 where 0 is no effect and 10 is complete control) was 0. The “Wheat plant response rating” value (wheat; [1]) was 0, the “Wheat plant response rating” value (wheat; [2]) was 2 and the “Plant response rating, Wheat” value (wheat; [3]) was 0. For the same compound, the “Plant response rating, Wheat” value (wheat; [4]) was 0, the “Plant response rating, Wheat” value (wheat; [5]) was 0 and the “Wheat plant response rating” value (wheat; [6]) was 0. For the same compound, the “Wheat plant response rating” value (wheat; [7]) was 0, the “Wheat plant response rating” value (wheat; [8]) was 3 and the “Rape plant response rating” value (rape; [1]) was 0. The “Rape plant response rating” value (rape; [2]) was 0, the “Plant response rating, Rape” value (rape; [3]) was 0 and the “Plant response rating, Rape” value (rape; [4]) was 0. The “Plant response rating, Rape” value (rape; [5]) was 0, the “Rape plant response rating” value (rape; [6]) was 0 and the “Rape plant response rating” value (rape; [7]) was 0. The “Rape plant response rating” value (rape; [8]) was 0, the “Nutsedge plant response rating” value (purple nutsedge; Rate 62 g/ha, scale 0 to 10, 0 is no effect, 10 is complete control) was 0 and the “Nutsedge plant response rating” value (purple nutsedge; Rate 250 g/ha, scale 0 to 10, 0 no effect, 10 complete control) was 0. For the same compound, the “Plant response rating, Nutsedge” value (purple nutsedge; Rate 125 g/ha, scale 0 to 10 (0 no effect, 10 complete control)) was 0, the “Plant response rating, Nutsedge” value (purple nutsedge; Rate 250 g/ha, scale of 0 to 10 where 0 is no effect and 10 is complete control) was 0 and the “Nutsedge plant response rating” value (purple nutsedge; Rate 125 g/ha, scale 0 to 10, 0 no effect, 10 complete control) was 0. The “Nutsedge plant response rating” value (purple nutsedge; Rate 500 g/ha, scale 0 to 10, 0 no effect, 10 complete control) was 0, the “Crabgrass plant response rating” value (crabgrass; [1]) was 0 and the “Crabgrass plant response rating” value (crabgrass; [2]) was 0. The “Plant response rating, Crabgrass” value (crabgrass; [3]) was 0, the “Plant response rating, Crabgrass” value (crabgrass; [4]) was 2 and the “Plant response rating, Crabgrass” value (crabgrass; [5]) was 2. The “Crabgrass plant response rating” value (crabgrass; [6]) was 5, the “Crabgrass plant response rating” value (crabgrass; [7]) was 0 and the “Crabgrass plant response rating” value (crabgrass; [8]) was 2. The “Morningglory plant response rating” value (morningglory; [1]) was 1, the “Morningglory plant response rating” value (morningglory; [2]) was 4 and the “Plant response rating, Morningglory” value (morningglory; [3]) was 0. The “Plant response rating, Morningglory” value (morningglory; [4]) was 0, the “Plant response rating, Morningglory” value (morningglory; [5]) was 0 and the “Morningglory plant response rating” value (morningglory; [6]) was 0. The “Morningglory plant response rating” value (morningglory; [7]) was 2, the “Morningglory plant response rating” value (morningglory; [8]) was 6 and the “Giant foxtail plant response rating” value (giant foxtail; [1]) was 0. The “Giant foxtail plant response rating” value (giant foxtail; [2]) was 0, the “Plant response rating, Giant foxtail” value (giant foxtail; [3]) was 0 and the “Plant response rating, Giant foxtail” value (giant foxtail; [4]) was 2. The “Plant response rating, Giant foxtail” value (giant foxtail; [5]) was 3, the “Giant foxtail plant response rating” value (giant foxtail; [6]) was 3 and the “Giant foxtail plant response rating” value (giant foxtail; [7]) was 0. For the same compound, the “Giant foxtail plant response rating” value (giant foxtail; [8]) was 2, the “Soybean plant response rating” value (soybean; [1]) was 2 and the “Soybean plant response rating” value (soybean; [2]) was 2. For the same compound, the “Plant response rating, Soybean” value (soybean; [3]) was 0, the “Plant response rating, Soybean” value (soybean; [4]) was 0 and the “Plant response rating, Soybean” value (soybean; [5]) was 0. The “Soybean plant response rating” value (soybean; [6]) was 0, the “Soybean plant response rating” value (soybean; [7]) was 2 and the “Soybean plant response rating” value (soybean; [8]) was 2. The “Bedstraw plant response rating” value (bedstraw; [1]) was 0, the “Bedstraw plant response rating” value (bedstraw; [2]) was 6 and the “Plant response rating, Bedstraw” value (bedstraw; [4]) was 0. The “Plant response rating, Bedstraw” value (bedstraw; [5]) was 0, the “Bedstraw plant response rating” value (bedstraw; [6]) was 0 and the “Bedstraw plant response rating” value (bedstraw; [7]) was 3. For the same compound, the “Cocklebur plant response rating” value (cocklebur; [1]) was 0, the “Cocklebur plant response rating” value (cocklebur; [2]) was 2 and the “Plant response rating, Cocklebur” value (cocklebur; [3]) was 0. The “Plant response rating, Cocklebur” value (cocklebur; [4]) was 0, the “Plant response rating, Cocklebur” value (cocklebur; [5]) was 0 and the “Cocklebur plant response rating” value (cocklebur; [6]) was 0. For the same compound, the “Cocklebur plant response rating” value (cocklebur; [7]) was 0, the “Cocklebur plant response rating” value (cocklebur; [8]) was 2 and the “Redroot pigweed plant response rating” value (pigweed; [1]) was 0. The “Redroot pigweed plant response rating” value (pigweed; [2]) was 0, the “Plant response rating, Redroot pigweed” value (pigweed; [3]) was 0 and the “Plant response rating, Redroot pigweed” value (pigweed; [4]) was 0. For the same compound, the “Plant response rating, Redroot pigweed” value (pigweed; [5]) was 0, the “Redroot pigweed plant response rating” value (pigweed; [6]) was 0 and the “Redroot pigweed plant response rating” value (pigweed; [7]) was 0. The “Redroot pigweed plant response rating” value (pigweed; [8]) was 2.

Reference: patent publication US6737383B1, “Herbicidal oxadiazolidines” (priority 1999, dated 2004)
